Results reported in US20260217656A1, “Compounds Affecting KRAS” (UNIVERSITAT DE BARCELONA, priority 2022, published 2026).
“Also recorded” adds a separate entry of the source.

Key:
Type in all cases: cell-based, human
[1] = tested on: ERK and AKT in DLD-1 cells stably expressing HA-KRAS-G12V; assay: Western blot of AKT and ERK phosphorylation in DLD-1 cells stably expressing HA-KRAS-G12V; conditions: serum-starved DLD-1 cells stably expressing HA-KRAS-G12V
Text: (§1) DLD-1 (KRASWT/G13D) (clone V15, #HD PAR-086) colorectal adenocarcinoma cell line and DLD-1 knockout of mutant KRAS allele, DLD-1 KO (KRASWT/−) (clone DWT7, #HD105-002), were obtained from Horizon Discovery Ltd. (Cambridge, UK). hTERT-RPE (KRASWT/WT) immortalized retinal pigment epithelial human cell line was obtained from the […] (ATCC). DLD-1 KO cells stably expressing HA-KRAS G12V were previously generated in our laboratory (Cabot et al., 2021). All cells were grown in DMEM-HAM s F12 (1:1) supplemented with 10% foetal bovine serum (Biological Industries, Israel), penicillin, streptomycin, and nonessential amino acids. Cells were tested once per month for mycoplasma contamination.
Cells were seeded in a media containing 10% FBS for 24 hours and then they were serum starved (0.1% FBS) for the next 24 hours. Afterwards, they were incubated with the different compounds during the times specified in each figure. When indicated, also in order to activate downstream KRAS cell signalling, treatment for 10 minutes with EGF (50 ng/mL) (Sigma-Aldrich) was performed. […]
We assessed the possibility that P14B favors RAS-effector binding and consequently increases downstream RAS signaling. […] The interaction was analyzed after 10 min of P14B treatment since P—C-RAF and P-MEK were observed after 15 min (FIG. 3C). […]

[2] = tested on: ERK and AKT in hTERT-RPE cells; assay: Western blot of AKT and ERK activation in serum-starved hTERT-RPE cells; conditions: 100 μM
Text: as §1, with “Cells were tested once per month for mycoplasma contamination.” left out
For analysis of RAS signalling, cells were lysed in a buffer containing 67 mM Tris-HCl pH 6.8 and 2% SDS and then the samples were heated at 97° C. for 15 minutes. Protein concentration of the lysates was assessed using the Lowry method. […]
Comparison of Ras signaling between DLD-1, DLD-1-KO and hTERT-RPE cells treated with P14B since important differences were observed between the viability of cells treated with P14B depending on their expression or lack of expression of oncogenic KRAS, we further studied whether these discrepancies were reflected also in KRAS downstream signaling. Serum-starved cells (0.1% FCS) were treated with P14B (100 μM) and activation of AKT and ERK was evaluated by WB. […]

[3] = tested on: Ras effectors ERK and AKT in DLD-1 cells; assay: Western blot of downstream RAS signaling (P-ERK, P-AKT, P-MEK) in serum-starved DLD-1 cells
Text: as §1
Cells were seeded in a media containing 10% FBS for 24 hours and then they were serum starved (0.1% FBS) for the next 24 hours. Afterwards, they were incubated with the different compounds during the times specified in each figure. When indicated, also in order to activate downstream KRAS cell signalling, treatment for 10 minutes with EGF (50 ng/mL) (Sigma-Aldrich) was performed.
Proteins were resolved by SDS-PAGE, transferred onto PVDF membranes (Immobilon-P, Millipore) and Western blot was performed as previously described (Cabot et al, Oncogene 2021). The following primary antibodies were used: anti-c-RAF (BD Transduction 610151, 1:500); anti-phospho-c-RAF S338 (Cell Signaling 9427, 1:500); anti-AKT (Cell Signaling 9272, 1:1000); anti-phospho-AKT T308 (Cell Signaling 4056, 1:1000); anti-phospho-MEK1/2 S221 (Cell Signalling […]); anti-p44/42 MAPK (ERK1/2) (Cell Signaling 9102, 1:2000); anti-phospho-p44/42 MAPK(ERK1/2) T202/Y204 (Cell Signaling 4370, 1:2000); anti-HA (Sigma-Aldrich H6908, 1:1000); anti-cleaved-caspase-3 (Asp175) (Cell Signaling 9661, 1:1000); HRP-coupled secondary antibodies used: goat anti-rabbit (BioRad 170-6515, 1:3000) or goat anti-mouse (BioRad 170 6516, 1:3000).
For analysis of RAS signalling, cells were lysed in a buffer containing 67 mM Tris-HCl pH 6.8 and 2% SDS and then the samples were heated at 97° C. for 15 minutes. Protein concentration of the lysates was assessed using the Lowry method. An aliquot of […] of protein per sample was loaded onto the gels.
We first analyzed the effect of P14 on the activation of downstream RAS signaling pathways (RAF/MEK/ERK and PI3K/AKT) in DLD-1 cells (CRC cells carrying one oncogenic KRAS allele). To this end, DLD-1 serum-starved cells (0.1% FCS) were treated with P14 (100 μM) at different times, and activation of AKT and ERK was evaluated by Western blot. […] As a 3-hour treatment was associated with major effects, we chose this duration for the subsequent experiments with the other compounds. Next, DLD-1 serum-starved cells were treated with P14A-P14C at 100 μM for 3 hours and activation of AKT and ERK was assessed as above. […] The kinetics of RAS downstream signaling was analyzed in P14B-treated cells compared to 10% FBS serum.

[4] = DLD-1 serum-starved cells, 100 μM, 3 hours
[5] = DLD-1 starved cells, time course 15 min to 6 hours

Question: Which “phosphorylation of AKT and ERK” value [1] does the source give for COc1ccc(C(c2c(C)n[nH]c2O)c2c(C)n[nH]c2O)cc1Oc1ccc([N+](=O)[O-])cc1 [Example P14B] here?
Answer: The value was “induced phosphorylation of AKT and ERK”.

Question: What about the “AKT and ERK phosphorylation” value [2] of the same molecule?
Answer: The value was “no significant increase”.

Question: What about the “AKT and ERK phosphorylation” value ([3]; DLD-1 serum-starved cells (0.1% FCS), 100 μM) of the same molecule?
Answer: The value was “dramatically increased; also recorded: increases endogenous downstream RAS signaling”.

Question: And the “activation of AKT and ERK” value [3, 4]?
Answer: Its value is “activated AKT and ERK kinases; also recorded: increase AKT and/or ERK signalling”.

Question: And the “relative capacity to activate Ras effectors ERK and AKT among the compounds” value [3, 4]?
Answer: The value was “most efficient; also recorded: greatest capacity to activate Ras signaling; also recorded: highest activation of both Ras effectors”.

Question: What about the “duration of ERK phosphorylation compared with 10% FBS” value [3, 5] of the same molecule?
Answer: Its value is “maintained for a longer time; also recorded: more sustained”.

Question: What about the “onset of ERK and MEK activation compared with 10% FBS” value [3, 5] of the same molecule?
Answer: The value was “clearly delayed”.
